From patent US10233186B2, “Inhibitors of activin receptor-like kinase” (BLUEPRINT MEDICINES CORPORATION, priority 2016, dated 2019)
Where two headings read alike, the source gives them in different places.

Columns and labels:
human ALK2 R206H = target: T1, human ALK2 R206H (Homo sapiens, UniProt Q04771, R206H); experiment: Cell-based ALK2-R206H cell activity assay (Smad1-Ser463/Ser465 phosphorylation by AlphaLISA in HEK293-ALK2-R206H cells)
T1 construct: expressed in transfected cells; host or cells: HEK293 (ATCC CRL1573), lentivirus transduction, blasticidin selection
T1 sequence (Q04771 21-509 R206H): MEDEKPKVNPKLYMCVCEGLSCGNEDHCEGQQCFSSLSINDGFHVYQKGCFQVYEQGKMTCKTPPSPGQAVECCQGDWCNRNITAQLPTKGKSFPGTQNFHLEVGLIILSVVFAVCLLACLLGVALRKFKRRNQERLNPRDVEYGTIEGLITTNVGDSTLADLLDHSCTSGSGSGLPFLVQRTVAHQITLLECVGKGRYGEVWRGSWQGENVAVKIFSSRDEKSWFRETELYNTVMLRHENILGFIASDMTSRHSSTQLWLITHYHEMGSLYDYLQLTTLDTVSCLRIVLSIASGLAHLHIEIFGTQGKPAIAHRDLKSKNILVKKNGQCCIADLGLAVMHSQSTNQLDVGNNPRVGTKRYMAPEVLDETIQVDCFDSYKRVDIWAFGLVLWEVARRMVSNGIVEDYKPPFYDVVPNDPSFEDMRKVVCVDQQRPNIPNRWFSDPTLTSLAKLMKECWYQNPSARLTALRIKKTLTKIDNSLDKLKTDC
How it was run: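 Stable HEK293 cells expressing C-terminally FLAG-tagged human ALK2 R206H (lentiviral, blasticidin-selected) were treated with compounds in 10-point, 3-fold dilutions from 10 μM or 1 μM top, in duplicate. Smad1 Ser463/Ser465 phosphorylation was read by AlphaLISA.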

[1] = target: T2, ALK2 R206H (GST-tagged mutant ALK2) (Homo sapiens, UniProt Q04771, R206H); experiment: ALK binding assay (LANTHASCREEN TR-FRET competitive binding, displacement of Kinase Tracer 178)
T2 construct: purchased Carna Bioscience or ThermoFisher 09-148 or PV6232
T2 sequence (Q04771 21-509 R206H): T1 sequence (Q04771 21-509 R206H)

[2] = read-out: Cell Line (Cell Assay IC50)
[3] = ALK2 R206H, LANTHASCREEN TR-FRET competitive binding, read-out: Binding Assay (IC50)

SMILES	IC50 (human ALK2 R206H; [2])	IC50 [1, 3]	IC50 (human ALK2 R206H; Cell Line (Cell Assay IC50))	IC50 [1]
COC1(c2ccc(-c3cc4c(N5CCN(C(=O)NC(C)C)CC5)ccnn4c3)nc2)CCNCC1 [Compound 785]	100 to 500 nM	< 10 nM	–	–
O=C(OC(CO)CO)N1CCN(c2ccnn3cc(-c4ccc(C5CCNCC5)cc4)cc23)CC1 [Compound 789, 1,3-dihydroxypropan-2-yl 4-(6-(4-(piperidin-4-yl)phenyl)pyrrolo[1,2-b]pyridazin-4-yl)piperazine-1-carboxylate]	> 500 nM	< 10 nM	–	–
CCOC(=O)N1CCN(c2ccnn3cc(-c4ccc(C5(OC)CCNC(C)(C)C5)cn4)cc23)CC1 (stereo not drawn) [Compound 802]	< 100 nM	< 10 nM	–	–
CC(C)NC(C)(CO)c1ccc(-c2cc3c(N4CCN(C(=O)OC5COC5)CC4)ccnn3c2)cc1 (stereo not drawn) [Compound 804]	< 100 nM	< 10 nM	–	–
CCN(CC)[C@@H](CO)c1ccc(-c2cc3c(N4CCN(C(=O)OC5COC5)CC4)ccnn3c2)cc1 [Compound 805]	< 100 nM	< 10 nM	–	–
O=C(C1CC1)N1CCN(c2ccnn3cc(-c4ccc(C5(C(F)(F)F)CCNCC5)cc4)cc23)CC1 [Compound 808]	< 100 nM	< 10 nM	–	–
CO[C@@]1(c2ccc(-c3cc4c(N5CCN(C(=O)[C@H]6C[C@H](C#N)C6)CC5)ccnn4c3)cc2)CCCNC1 [Compound 809]	< 100 nM	< 10 nM	–	–
CC(C)N1CCC[C@@H](c2ccc(-c3cc4c(N5CCN(C(=O)OCCC#N)CC5)ccnn4c3)cc2)C1 [Compound 810]	< 100 nM	< 10 nM	–	–
CC(C)N1CCC(CO)(c2ccc(-c3cc4c(N5CCN(C(=O)C6CC6)CC5)ccnn4c3)cc2)CC1 [Compound 811]	< 100 nM	< 10 nM	–	–
CC(C)N1CCC(c2ccc(-c3cc4c(N5CCN(C(=O)C6CCOC6)CC5)ccnn4c3)cc2)CC1 (stereo not drawn) [Compound 812]	100 to 500 nM	< 10 nM	–	–
CC1(C)CC(O)(c2ccc(-c3cc4c(N5CCN(C(=O)C6CC6)CC5)ccnn4c3)cc2)CC(C)(C)N1 [Compound 813]	–	–	< 100 nM	< 10 nM
[2H]C1(OC(=O)N2CCN(c3ccnn4cc(-c5ccc(C6CCN(C(C)C)CC6)cc5)cc34)CC2)COC1 [Compound 814]	< 100 nM	< 10 nM	–	–
CCO[C@]1(c2ccc(-c3cc4c(N5CCN(C(=O)OC6COC6)CC5)ccnn4c3)cc2)CCCNC1 [Compound 815]	< 100 nM	< 10 nM	–	–
CCO[C@@]1(c2ccc(-c3cc4c(N5CCN(C(=O)OC6COC6)CC5)ccnn4c3)cc2)CCCNC1 [Compound 816]	< 100 nM	< 10 nM	–	–
COC1(c2ccc(-c3cc4c(N5CCN(C(=O)NC(C)C)CC5)ccnn4c3)nc2)CCNC(C)(C)C1 (stereo not drawn) [Compound 817]	< 100 nM	< 10 nM	–	–
CCO[C@]1(c2ccc(-c3cc4c(N5CCN(C(=O)OC6COC6)CC5)ccnn4c3)nc2)CCCNC1 [Compound 818]	< 100 nM	< 10 nM	–	–
CCO[C@@]1(c2ccc(-c3cc4c(N5CCN(C(=O)OC6COC6)CC5)ccnn4c3)nc2)CCCNC1 [Compound 819]	< 100 nM	< 10 nM	–	–
CCOC(=O)N1CCN(c2ccnn3cc(-c4ccc(C5(OC)CCN(C(C)C)CC5)cn4)cc23)CC1 [Compound 820]	< 100 nM	< 10 nM	–	–

SMILES	IC50 (human ALK2 R206H; [2])	IC50 [1, 3]	IC50 (human ALK2 R206H; Cell Line (Cell Assay IC50))	IC50 [1]
CCOC1(c2ccc(-c3cc4c(N5CCN(C(=O)OC6COC6)CC5)ccnn4c3)nc2)CCOCC1 [Compound 821]	< 100 nM	< 10 nM	–	–
CC(C)NC(=O)N1CCN(c2ccnn3cc(-c4ccc(C5(C(F)(F)F)CCNCC5)cc4)cc23)CC1 [Compound 823]	< 100 nM	< 10 nM	–	–
COCC1(c2ccc(-c3cc4c(N5CCN(C(=O)C6CC6)CC5)ccnn4c3)cc2)CCN(C(C)C)CC1 [Compound 824]	< 100 nM	< 10 nM	–	–
CC(C)N1CCC[C@@H](c2ccc(-c3cc4c(N5CCN(C(=O)O[C@@H]6CCOC6)CC5)ccnn4c3)cc2)C1 [Compound 825]	100 to 500 nM	< 10 nM	–	–
CC(C)N1CCC[C@@H](c2ccc(-c3cc4c(N5CCN(C(=O)O[C@H]6CCOC6)CC5)ccnn4c3)cc2)C1 [Compound 826]	< 100 nM	< 10 nM	–	–
CC(C)N1CCC[C@@H](c2ccc(-c3cc4c(N5CCN(C(=O)OC6(C)COC6)CC5)ccnn4c3)cc2)C1 [Compound 827]	100 to 500 nM	< 10 nM	–	–
CC1OCC1OC(=O)N1CCN(c2ccnn3cc(-c4ccc([C@@H]5CCCN(C(C)C)C5)cc4)cc23)CC1 (stereo partly drawn) [Compound 828]	100 to 500 nM	< 10 nM	–	–
COC1(c2ccc(-c3cc4c(N5CCN(C(=O)NC(C)C)CC5)ccnn4c3)cc2)CCN(C(C)C)CC1 [Compound 829]	< 100 nM	< 10 nM	–	–
CCOC(=O)N1CCN(c2ccnn3cc(-c4ccc(C5(OCC)CCN(C(C)C)CC5)cc4)cc23)CC1 [Compound 831]	< 100 nM	< 10 nM	–	–
CC(C)N1CCC(c2ccc(-c3cc4c(N5CCN(C(=O)SC6COC6)CC5)ccnn4c3)cc2)CC1 [Compound 832]	< 100 nM	< 10 nM	–	–
COC1(c2ccc(-c3cc4c(N5CCN(C(=O)OC6COC6)CC5)ccnn4c3)nc2)CCNC(C)(C)C1 (stereo not drawn) [Compound 833]	< 100 nM	< 10 nM	–	–
CCOC(=O)N1CCN(c2ccnn3cc(-c4ccc(C5(OC)CCN(C6COC6)CC5)cn4)cc23)CC1 [Compound 834]	< 100 nM	< 10 nM	–	–
CCOC(=O)N1CCN(c2ccnn3cc(-c4ccc(C5(OCC)CCN(C(C)C)CC5)cn4)cc23)CC1 [Compound 835]	< 100 nM	< 10 nM	–	–
CC(C)N1CCC(c2ccc(-c3cc4c(N5CCN(C(=O)OC(CO)CO)CC5)ccnn4c3)cc2)CC1 [Compound 836]	100 to 500 nM	< 10 nM	–	–
CC(C)N1CCC[C@@H](c2ccc(-c3cc4c(N5CCN(C(=O)OC(CO)CO)CC5)ccnn4c3)cc2)C1 [Compound 837]	100 to 500 nM	< 10 nM	–	–
CC(C)N1CCC(c2ccc(-c3cc4c(N5CCN(C(=O)Nc6ccccc6)CC5)ccnn4c3)cc2)CC1 [Compound 838]	100 to 500 nM	< 10 nM	–	–
COC1(c2ccc(-c3cc4c(N5CCN(C(=O)C6CC6)CC5)ccnn4c3)c(C#N)c2)CCN(C(C)C)CC1 [Compound 839]	< 100 nM	< 10 nM	–	–

Results, then the compound that gave them:

IC50 (human ALK2 R206H; [2])	IC50 [1, 3]	IC50 (human ALK2 R206H; Cell Line (Cell Assay IC50))	IC50 [1]	SMILES
< 100 nM	< 10 nM	–	–	CCOC(=O)N1CCN(c2ccnn3cc(-c4ccc([C@]5(OCC)CCCNC5)cc4)cc23)CC1 [Compound 783]
< 100 nM	< 10 nM	–	–	CO[C@]1(c2ccc(-c3cc4c(N5CCN(C(=O)NC(C)C)CC5)ccnn4c3)nc2)CCCNC1 [Compound 784]
< 100 nM	< 10 nM	–	–	CO[C@@]1(c2ccc(-c3cc4c(N5CCN(C(=O)NC(C)C)CC5)ccnn4c3)nc2)CCCNC1 [Compound 786]
< 100 nM	< 10 nM	–	–	CCOC(=O)N1CCN(c2ccnn3cc(-c4ccc([C@]5(OCC)CCCNC5)cn4)cc23)CC1 [Compound 787]
< 100 nM	< 10 nM	–	–	CCOC(=O)N1CCN(c2ccnn3cc(-c4ccc([C@@]5(OCC)CCCNC5)cn4)cc23)CC1 [Compound 788]
< 100 nM	< 10 nM	–	–	CC(C)N[C@H](CO)c1ccc(-c2cc3c(N4CCN(C(=O)OC5COC5)CC4)ccnn3c2)cc1 [Compound 791]
< 100 nM	< 10 nM	–	–	CC(C)N[C@@H](CO)c1ccc(-c2cc3c(N4CCN(C(=O)OC5COC5)CC4)ccnn3c2)cc1 [Compound 792]
< 100 nM	< 10 nM	–	–	[2H]C([2H])([2H])C([2H])([2H])OC(=O)N1CCN(c2ccnn3cc(-c4ccc([C@@]5(OCC)CCCNC5)cn4)cc23)CC1 [Compound 793]
< 100 nM	< 10 nM	–	–	[2H]C([2H])([2H])C([2H])([2H])OC(=O)N1CCN(c2ccnn3cc(-c4ccc([C@]5(OCC)CCCNC5)cn4)cc23)CC1 [Compound 794]
< 100 nM	< 10 nM	–	–	CC(C)N1CCC(c2ccc(-c3cc4c(N5CCN(C(=O)OC6CC6)CC5)ccnn4c3)cc2)CC1 [Compound 795]
< 100 nM	< 10 nM	–	–	CCOC(=O)N1CCN(c2ccnn3cc(-c4ccc([C@]5(OC)CCCNC5)cn4)cc23)CC1 [Compound 796]
< 100 nM	< 10 nM	–	–	CCO[C@@]1(c2ccc(-c3cc4c(N5CCN(C(=O)NC(C)C)CC5)ccnn4c3)nc2)CCCNC1 [Compound 797]
< 100 nM	< 10 nM	–	–	CCO[C@]1(c2ccc(-c3cc4c(N5CCN(C(=O)NC(C)C)CC5)ccnn4c3)nc2)CCCNC1 [Compound 798]
< 100 nM	< 10 nM	–	–	COC1(c2ccc(-c3cc4c(N5CCN(C(=O)OC6COC6)CC5)ccnn4c3)cc2)CCOCC1 [Compound 799]
< 100 nM	< 10 nM	–	–	CO[C@]1(c2ccc(-c3cc4c(N5CCN(C(=O)OC6COC6)CC5)ccnn4c3)nc2)CCCNC1 [Compound 800]
< 100 nM	< 10 nM	–	–	CO[C@@]1(c2ccc(-c3cc4c(N5CCN(C(=O)OC6COC6)CC5)ccnn4c3)nc2)CCCNC1 [Compound 801]
